In one test the target is T1, GPR3 (Homo sapiens, UniProt P46089).
T1 construct: expressed in transfected cells; host or cells: CHO cells
Put plainly: GPR3 antagonist functional cAMP assay (LANCE Ultra cAMP TR-FRET, CHO cells stably expressing GPR3). It counts as cell-based. An outline of the steps: (§1)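 cAMP quantified by TR-FRET immunoassay after 45 min compound treatment at 37° C of CHO cells stably expressing GPR3 or GPR6, in PDE-inhibitor (Ro 20-1724, 150 μM) buffer with 0.1% BSA. Data scaled between DMSO (0%) and reference compounds (100%); antagonist IC50 by 4-parameter logistic fit.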
Background: Changes in cAMP serve as a functional read-out for many G protein-coupled receptors.

The next test has as its target T2, GPR6 (Homo sapiens, UniProt P46095).
T2 construct: expressed in transfected cells; host or cells: CHO cells
Briefly: GPR6 antagonist functional cAMP assay (LANCE Ultra cAMP TR-FRET, CHO cells stably expressing GPR6). It is filed as cell-based. A digest of the protocol:
as §1

The mark [1] stands for this setting: CHO cells stably expressing GPR3, cAMP assay.
[2] abbreviates: CHO cells stably expressing GPR6, cAMP assay.
Where [3] appears, read: CHO cells stably expressing GPR3, cAMP assay (Example 24).
Setting [4] is: CHO cells stably expressing GPR6, cAMP assay (Example 24).

For orientation: IC50 means the concentration that gives 50% inhibition.

Molecules are shown by their SMILES.

T2 sequence (P46095 whole entry): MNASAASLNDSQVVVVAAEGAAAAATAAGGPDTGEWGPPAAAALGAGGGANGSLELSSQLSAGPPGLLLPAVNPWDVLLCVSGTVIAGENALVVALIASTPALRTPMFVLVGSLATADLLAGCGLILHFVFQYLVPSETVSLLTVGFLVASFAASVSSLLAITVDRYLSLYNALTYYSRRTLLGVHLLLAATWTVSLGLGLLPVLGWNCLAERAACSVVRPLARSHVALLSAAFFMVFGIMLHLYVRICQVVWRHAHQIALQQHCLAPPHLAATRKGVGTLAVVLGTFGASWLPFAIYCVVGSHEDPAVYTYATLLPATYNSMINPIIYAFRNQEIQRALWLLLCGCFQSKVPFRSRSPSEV
T1 sequence (P46089 whole entry, species assumed): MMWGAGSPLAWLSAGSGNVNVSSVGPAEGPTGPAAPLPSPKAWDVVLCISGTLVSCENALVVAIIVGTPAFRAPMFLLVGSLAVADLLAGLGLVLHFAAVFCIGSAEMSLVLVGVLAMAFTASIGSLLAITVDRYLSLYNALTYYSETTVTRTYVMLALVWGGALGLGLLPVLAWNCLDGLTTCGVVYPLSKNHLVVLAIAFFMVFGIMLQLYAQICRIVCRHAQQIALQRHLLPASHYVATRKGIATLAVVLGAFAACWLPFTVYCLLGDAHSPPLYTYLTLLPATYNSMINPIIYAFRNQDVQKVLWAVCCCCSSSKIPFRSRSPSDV

Take `Cn1cc(-c2nc3cc([C@@H](O)C(C)(C)O)ncc3nc2N2CCC(=Cc3ccc(F)cc3F)CC2)cn1` (single isomer, unassigned) [Compound 763]: the IC50 against GPR3 (procedure of Example 24) is 100 to 1000 nM; against GPR6 (procedure of Example 24) it was < 100 nM.

With `CC(C)(O)[C@H](O)c1cc2nc(-c3cn[nH]c3)c(N3CCN(Cc4ccc(F)cc4F)CC3)nc2cn1` (single isomer, unassigned) [Compound 799], the half-inhibitory concentration (IC50) at GPR3 (procedure of Example 24) and against GPR6 (procedure of Example 24) was 1000 to 30000 nM throughout.

In the case of `CCn1cc(-c2nc3c(nc2N2CCC(Oc4ccc(F)cc4F)CC2)CCN(S(=O)(=O)C(C)C)C3)cn1` [Compound 266, 4-(2,4-difluorophenoxy)-1-[3-(1-ethyl-1H-pyrazol-4-yl)-6-(propane-2-sulfonyl)-5H,6H,7H,8H-pyrido[3,4-b]pyrazin-2-yl]piperidine], the half-inhibitory concentration (IC50) was 1000 to 30000 nM against GPR3 (procedure of Example 24) and < 100 nM against GPR6 (procedure of Example 24).

In the case of `CC(=O)N1CCc2nc(N3CCN(Cc4ccc(F)cc4F)CC3)c(-c3ccc(F)c(N)n3)nc2C1` [Compound 609, 1-[3-(6-amino-5-fluoro-2-pyridyl)-2-{4-[(2,4-difluorophenyl)methyl]-1-piperazinyl}-5,6,7,8-tetrahydro-1,4,6-triaza-6-naphthyl]-1-ethanone], the concentration for half-maximal inhibition (IC50) against GPR3 (setting [1]) and against GPR6 (setting [2]) was 100 to 1000 nM in each case.

For `COc1cccc(-c2nc3cnccc3nc2N2CC3(CC(Oc4ccc(F)cc4F)C3)C2)n1` [Compound 104, 6-(2,4-difluorophenoxy)-2-[3-(6-methoxypyridin-2-yl)pyrido[3,4-b]pyrazin-2-yl]-2-azaspiro[3.3]heptane], the IC50 against GPR3 (setting [3]) and at GPR6 (setting [4]) was 1000 to 30000 nM throughout.

Consider `OCCNc1cc2nc(-c3cnn(CF)c3)c(N3CCN(Cc4ccc(F)cc4F)CC3)nc2cn1` [Compound 759, 2-(3-{4-[(2,4-difluorophenyl)methyl]-1-piperazinyl}-2-[1-(fluoromethyl)-4-pyrazolyl]-1,4,6-triaza-7-naphthylamino)ethanol], for which the 50% inhibitory concentration (IC50) on GPR3 (procedure of Example 24) was in the range of 1000 to 30000 nM; against GPR6 (procedure of Example 24), 100 to 1000 nM.

On to `CCS(=O)(=O)N1CCc2nc(N3CCC(Oc4ccc(F)cc4F)CC3)c(-c3cn[nH]c3)nc2C1` [Compound 123, 4-(2,4-difluorophenoxy)-1-[6-(ethanesulfonyl)-3-(1H-pyrazol-4-yl)-5H,6H,7H,8H-pyrido[3,4-b]pyrazin-2-yl]piperidine], for which the values for the IC50 against GPR3 (setting [3]) and on GPR6 (setting [4]) were 1000 to 30000 nM and 100 to 1000 nM, respectively.

For `Cn1cc(-c2nc3cnc(OC4COC4)cc3nc2N2CCC(Oc3ccc(F)cc3F)CC2)cn1` [Compound 382, 4-(2,4-difluorophenoxy)-1-[3-(1-methyl-1H-pyrazol-4-yl)-7-(oxetan-3-yloxy)pyrido[3,4-b]pyrazin-2-yl]piperidine], the results for the IC50 on GPR3 (setting [3]) and against GPR6 (setting [4]) were 1000 to 30000 nM and 100 to 1000 nM, respectively.

As to `CC(=O)N1CCc2nc(N3CCC(Oc4ccc(F)cc4F)CC3)c(C3CCC(O)CC3)nc2C1` (stereo not shown) [Compound 374, 1-(2-(4-(2,4-difluorophenoxy)piperidin-1-yl)-3-(4-hydroxycyclohexyl)-7,8-dihydropyrido[3,4-b]pyrazin-6(5H)-yl)ethan-1-one], the IC50 at GPR3 (procedure of Example 24) and against GPR6 (procedure of Example 24) was 1000 to 30000 nM in each case.

For the compound `CC(=O)N1CCc2nc(N3CCC(Oc4ccc(Br)cn4)CC3)c(-c3cnn(C)c3)nc2C1` [Compound 513, 1-{2-[4-(5-bromo-2-pyridyloxy)-1-piperidyl]-3-(1-methyl-4-pyrazolyl)-5,6,7,8-tetrahydro-1,4,6-triaza-6-naphthyl}-1-ethanone], the IC50 at GPR3 (setting [1]) and at GPR6 (setting [2]) was 1000 to 30000 nM in each case.

On to `OCCOc1cc2nc(-c3cnn(CF)c3)c(N3CCN(Cc4ccc(F)cc4F)CC3)nc2cn1` [Compound 760, 2-(3-{4-[(2,4-difluorophenyl)methyl]-1-piperazinyl}-2-[1-(fluoromethyl)-4-pyrazolyl]-1,4,6-triaza-7-naphthyloxy)ethanol], for which the half-inhibitory concentration (IC50) against GPR3 (procedure of Example 24) and at GPR6 (procedure of Example 24) was 100 to 1000 nM each time.

(Values after US20260042755A1, “GPR6 INVERSE AGONISTS” (MapLight Therapeutics, Inc., priority 2022, published 2026).)
